Read-outs that look alike come from different tables or passages of the source.
How the values were obtained:
[1] = system: variant PPT resistant alfalfa cell line; assay: Growth of suspension cultures (packed cell volume), selected resistant cells; type: cell-based
Description: The amide nitrogen of glutamine provides the source of nitrogen for many biosynthetic reactions, indicating a central role for GS in nitrogen metabolism.
Selection is carried out in an appropriate culture medium by cultivating plant cells in the presence of stepwise increases of the herbicidal GS-inhibitor in the medium. After a given period of time has elapsed, such as, for example, a few weeks to several months, it is possible to select a cell population which is several-fold more resistant to the herbicidal GS-inhibitor than the original plant cells. For example, when the cells are alfalfa and the inhibitor is PPT, it has been possible to obtain a PPT-resistant alfalfa cell line after one year of stepwise PPT increases, which line was 20-fold more resistant to PPT than the original line. […] This was never possible by plating wild-type cells.
An alfalfa cell line which is able to grow in the presence of 3 mM L-phosphinothricin in the culture medium was selected. Alfalfa was chosen since it is one of the model plants in which the regeneration of a whole plant from single isolated cells or protoplasts can be readily achieved.
The selection of the phosphinothricin resistant alfalfa line was done by stepwise increase of the inhibitor concentration in the liquid culture medium. […]

[2] = biological target: pea leaf glutamine synthetase; settings: cited from earlier work
[3] = system: monocotyledonous weeds; settings: field trials; Schwerdtle 1981; cited from earlier work
[4] = biological target: glutamine synthetase from E. coli (Escherichia coli, UniProt P0A9C5); settings: competitive inhibitor; cited from earlier work
glutamine synthetase from E. coli, sequence (P0A9C5 2-469): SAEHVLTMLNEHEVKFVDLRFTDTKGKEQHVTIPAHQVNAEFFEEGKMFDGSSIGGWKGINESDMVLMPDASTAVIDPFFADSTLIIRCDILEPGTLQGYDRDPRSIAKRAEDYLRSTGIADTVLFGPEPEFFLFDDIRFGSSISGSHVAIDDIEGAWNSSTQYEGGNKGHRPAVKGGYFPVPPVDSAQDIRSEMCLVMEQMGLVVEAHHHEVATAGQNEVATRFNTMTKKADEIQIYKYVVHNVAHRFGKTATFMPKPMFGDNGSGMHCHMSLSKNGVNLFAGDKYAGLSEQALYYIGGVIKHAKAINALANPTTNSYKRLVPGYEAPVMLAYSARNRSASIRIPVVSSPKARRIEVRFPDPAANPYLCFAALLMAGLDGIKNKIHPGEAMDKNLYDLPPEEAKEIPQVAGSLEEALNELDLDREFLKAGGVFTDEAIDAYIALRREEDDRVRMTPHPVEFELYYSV

[5] = system: dicotyledonous weeds; settings: field trials in West Germany, Spain, South Africa, U.S.A. and Japan; Schwerdtle 1981; cited from earlier work
[6] = system: GS; assay: GS activity of cell extracts in the presence of various amounts of phosphinothricin; type: biochemical, alfalfa; settings: both cell types
Description: When the protein patterns of crude cell extracts of the susceptible and resistant cell lines were compared by SDS-polyacrylamide gel electrophoresis, the overproduction of a polypeptide in the molecular weight range 40-42 KD could be observed in the PPT-resistant cell line. Purified GS of alfalfa has the same molecular weight. The enzyme activity of the cell extracts was determined in parallel. The specific GS-activity in the resistant cells was 5-10 fold higher than in wild-type cells. The specific activity of GS in the PPT-resistant cell lines is in the same order of magnitude as in root nodule tissue of alfalfa, which, as all nodule tissues of efficiently dinitrogen fixing legumes, has high GS-activity.

For CP(=O)(O)CC[C@H](N)C(=O)O [L-phosphinothricin], which “concentration in the culture medium in the presence of which the selected cell line is able to grow” value [1] is on record?
The value was 3 mM.

Which Ki ([2]; read-out: Ki value) does the source give for CS(=N)(=O)CCC(N)C(=O)O (stereo not shown) [MSO, methionine sulfoximime] here?
Its Ki is 160 µM.

With CP(=O)(O)CC[C@H](N)C(=O)O [PPT, phosphinothricin] as the compound, how does the Ki ([2]; mixed competitive inhibitor, Leason et al. 1982, read-out: apparent Ki value) read?
The Ki was 73 µM.

What about the weed control [3] of the same compound?
The weed control was “somewhat higher quantities were needed for good control”.

And the Ki [4]?
The Ki was 5.9 µM.

And the weed control [5]?
Its weed control is “well controlled”.

And the “enzyme inhibition in wild-type versus resistant cell extracts” value [6]?
Its value is “same degree of enzyme inhibition”.

— patent EP0239801B1, “Plant cells resistant to herbicidal glutamine synthetase inhibitors” (THE GENERAL HOSPITAL CORPORATION, priority 1986, dated 1987)
